# Laboratory results reported in patent US3956312A, “Indazole-3-carboxylic acid hydrazides and a process for the preparation thereof” (Egyt Gyogyszervegyeszeti Gyar, priority 1973, dated 1976).
# Counter-ions that a name gives are not always drawn. Like-named read-outs stand apart in the source and are kept apart here.
# Assays:
# [1] = antidepressant activity, inhibition of tetrabenazine ptosis; type: in vivo, mice; settings: mouse, in vivo; Table 4, antidepressant activity, mice, oral; read-out: Therapeutical index
# Description: (§1) The antidepressant activity was examined on mice, after oral administration. Tetrabenazine was administered to the animals in a dosage provoking maximum ptosis, and the inhibiting activity of the tested compounds was measured.
# tetrabenazine ptosis = assay: as above; type: in vivo, mice; settings: for ED50: Mus musculus, mice, oral, tetrabenazine ptosis
# Description: as §1
# [2] = spasmolytic effect in vivo, carbon suspension method of Stickney; settings: mouse, in vivo, ip; Table 1, spasmolytic effect, white mice, intraperitoneal; read-out: Therapeutical index LD50/ED50
# Description: (§2) The spasmolytic effect was tested under in vivo conditions on white mice, by the carbon suspension method of Stickney. The active agents were administered intraperitoneally, and the total length of the small intestines as well as the length of the intestines filled with carbon were measured. […] The ED50 values were calculated according to the LitchfieldWilcoxon method from the thus-transformed values. In order to evaluate the safety margin of the active agents, the acute LD50 values were also determined on white mice in intraperitoneal administration. The observation periods in the toxicity tests were 48 hours, and the calculation was performed according to the LitchfieldWilcoxon method, also taking into consideration the perished animals.
# small intestines = assay: as above; settings: Mus musculus, ip; white mice, intraperitoneal, Litchfield-Wilcoxon
# Description: as §2
# [3] = acute toxicity (LD50), intraperitoneal, 48 hours observation; settings: mouse, in vivo, ip, read-out: Toxicity LD5
# Description: as §2
# [4] = toxicity LD50 listed with the antidepressant activity (Table 4); settings: mouse, in vivo
# gastric acid secretion [5] = assay: inhibition of gastric acid secretion, Shay's method; type: in vivo, Wistar rats; settings: 5 hours
# Shay ulcer = assay: antiulcer activity, Shay ulcer; type: in vivo, rats; settings: related to the controls averages
# Description: (§3) The antiulcer activity of 5,6-dimethoxyindazole-3-carboxylic acid-benzylhydrazide was determined on rats.
# **Shay ulcer (Shay, H., Komarov, S.A., Fels, S.S., Meranze, D.,
# Gruenstein, M., Siplet, H.: Gastroenterology 5, 45 /1945/)
# gastric acid secretion [6] = assay: inhibition of gastric acid secretion, Shay's method; type: in vivo, Wistar rats; settings: 5 hours; remark: listed apart in the source
# Description: The animals were operated according to Shay's method, and the substance to be tested was administered intraperitoneally. After 5 hours the animals were sacrified, and the volume of gastric juice, the amount of free hydrochloric acid, and the total acidity were determined.
# Reserpine-ulcer = assay: antiulcer activity, Reserpine-ulcer; type: in vivo, rats; settings: related to the controls averages
# Description: as §3
# [7] = toxicity on mice p.o. (Table 2); settings: mouse, in vivo, po
# [8] = white mice, intraperitoneal, 48 hours observation
smiles,measurement,setting,value
"COc1cc2[nH]nc(C(=O)NNCc3ccccc3O)c2cc1OC [Compound 32, 5,6-dimethoxyindazole-3-carboxylic acid-2'-hydroxybenzylhydrazide]",selectivity ratio,[1],136
same,ED50,tetrabenazine ptosis,22 mg/kg
same,therapeutical width,tetrabenazine ptosis; compared with amitryptiline,"significantly exceeds that of the well known agent, amitryptiline"
same,selectivity ratio,[2],120
same,ED50,small intestines,25 mg/kg
same,LD50 at 48 h,[3],> 3000 mg/kg
same,LD50,[4],> 3000 mg/kg
"CCCN(CCC)C(=O)C(CCC(=O)O)NC(=O)c1ccccc1 (centres unmarked) [Xylamide, reference compound]",Percentage inhibition of free HCl,gastric acid secretion [5]; 500 mg./kg. intraperitoneal,89%
same,Percentage inhibition of gastric juice,gastric acid secretion [5]; 500 mg./kg. intraperitoneal,81%
same,Percentage inhibition of total acidity,gastric acid secretion [5]; 500 mg./kg. intraperitoneal,80%
"COc1ccc(Cc2nccc3cc(OC)c(OC)cc23)cc1OC [papaverine, reference compound]",selectivity ratio,[2],2.9
same,ED50,small intestines,46 mg/kg
same,LD50 at 48 h,[3]; [8],132 mg/kg
"CN(C)CCC=C1c2ccccc2CCc2ccccc21 [amitryptiline, 5-(3-dimethylamino-propylidene)-10,11-dihydro-5H-dibenzo(a,d)cycloheptan hydrochloride, reference compound]",selectivity ratio,[1],17.3
same,ED50,tetrabenazine ptosis,13 mg/kg
same,LD50,[4]; Table 4,225 mg/kg
"COc1cc2[nH]nc(C(=O)NNCc3ccccc3)c2cc1OC [Compound 30, 5,6-dimethoxyindazole-3-carboxylic acid-benzylhydrazide]",Percentage inhibition according to the occurrence of ulcer,Shay ulcer; 100 mg./kg.,12%
same,Percentage inhibition according to the ulcer index,Shay ulcer; 100 mg./kg.,33%
same,Percentage inhibition according to ulcer diameters 2-5 mm.,Shay ulcer; 100 mg./kg.,42%
same,Percentage inhibition according to ulcer diameters 5-10 mm.,Shay ulcer; 100 mg./kg.,71%
same,Percentage inhibition according to ulcer diameters <2 mm.,Shay ulcer; 100 mg./kg.,0%
same,Percentage inhibition according to ulcer diameters >10 mm.,Shay ulcer; 100 mg./kg.,62%
same,Percentage inhibition according to the occurrence of ulcer,Shay ulcer; 200 mg./kg.,22%
same,Percentage inhibition according to the ulcer index,Shay ulcer; 200 mg./kg.,53%
same,Percentage inhibition according to ulcer diameters 2-5 mm.,Shay ulcer; 200 mg./kg.,85%
same,Percentage inhibition according to ulcer diameters 5-10 mm.,Shay ulcer; 200 mg./kg.,67%
same,Percentage inhibition according to ulcer diameters <2 mm.,Shay ulcer; 200 mg./kg.,86%
same,Percentage inhibition according to ulcer diameters >10 mm.,Shay ulcer; 200 mg./kg.,100%
same,selectivity ratio,[1],14.3
same,ED50,tetrabenazine ptosis,140 mg/kg
same,Percentage inhibition of free HCl,gastric acid secretion [6]; 25 mg./kg. i.p.,33%
same,Percentage inhibition of total acidity,gastric acid secretion [6]; 25 mg./kg. i.p.,20%
same,Percentage inhibition of free HCl,gastric acid secretion [6]; 100 mg./kg. intraperitoneal,74%
same,Percentage inhibition of gastric juice,gastric acid secretion [6]; 100 mg./kg. intraperitoneal,48%
same,Percentage inhibition of total acidity,gastric acid secretion [6]; 100 mg./kg. intraperitoneal,56%
same,Percentage inhibition according to the occurrence of ulcer,Reserpine-ulcer; 10 mg./kg.,0%
same,Percentage inhibition according to the ulcer index,Reserpine-ulcer; 10 mg./kg.,14%
same,Percentage inhibition according to ulcer diameters 2-5 mm.,Reserpine-ulcer; 10 mg./kg.,14%
same,Percentage inhibition according to ulcer diameters 5-10 mm.,Reserpine-ulcer; 10 mg./kg.,0%
same,Percentage inhibition according to ulcer diameters <2 mm.,Reserpine-ulcer; 10 mg./kg.,22%
same,Percentage inhibition according to ulcer diameters >10 mm.,Reserpine-ulcer; 10 mg./kg.,0%
same,Percentage inhibition according to the occurrence of ulcer,Reserpine-ulcer; 25 mg./kg.,70%
same,Percentage inhibition according to the ulcer index,Reserpine-ulcer; 25 mg./kg.,81%
same,Percentage inhibition according to ulcer diameters 2-5 mm.,Reserpine-ulcer; 25 mg./kg.,100%
same,Percentage inhibition according to ulcer diameters 5-10 mm.,Reserpine-ulcer; 25 mg./kg.,100%
same,Percentage inhibition according to ulcer diameters <2 mm.,Reserpine-ulcer; 25 mg./kg.,93%
same,Percentage inhibition according to ulcer diameters >10 mm.,Reserpine-ulcer; 25 mg./kg.,100%
same,Percentage inhibition according to the occurrence of ulcer,Reserpine-ulcer; 50 mg./kg.,90%
same,Percentage inhibition according to the ulcer index,Reserpine-ulcer; 50 mg./kg.,97%
same,Percentage inhibition according to ulcer diameters 2-5 mm.,Reserpine-ulcer; 50 mg./kg.,100%
same,Percentage inhibition according to ulcer diameters 5-10 mm.,Reserpine-ulcer; 50 mg./kg.,100%
same,Percentage inhibition according to ulcer diameters <2 mm.,Reserpine-ulcer; 50 mg./kg.,98%
same,Percentage inhibition according to ulcer diameters >10 mm.,Reserpine-ulcer; 50 mg./kg.,100%
same,LD50,[4]; Table 4,2000 mg/kg
same,LD50,[7],2000 mg/kg
same,Percentage inhibition of gastric juice,gastric acid secretion [5]; 25 mg./kg. i.p.,13%
same,Percentage inhibition of free HCl,gastric acid secretion [5]; 50 mg./kg. p.o.,50%
same,Percentage inhibition of gastric juice,gastric acid secretion [5]; 50 mg./kg. p.o.,36%
same,Percentage inhibition of total acidity,gastric acid secretion [5]; 50 mg./kg. p.o.,39%
same,Percentage inhibition of free HCl,gastric acid secretion [5]; 100 mg./kg. p.o.,76%
same,Percentage inhibition of gastric juice,gastric acid secretion [5]; 100 mg./kg. p.o.,48%
same,Percentage inhibition of total acidity,gastric acid secretion [5]; 100 mg./kg. p.o.,63%
same,Percentage inhibition of free HCl,gastric acid secretion [5]; 200 mg./kg. i.p.,72%
same,Percentage inhibition of gastric juice,gastric acid secretion [5]; 200 mg./kg. i.p.,63%
same,Percentage inhibition of total acidity,gastric acid secretion [5]; 200 mg./kg. i.p.,64%
"CCN(CC)CCOC(=O)C(c1ccccc1)c1ccccc1.Cl [Adiphenine, 2-diethylaminoethyl-diphenylacetate hydrochloride, reference compound]",Percentage inhibition of free HCl,gastric acid secretion [6]; 100 mg./kg. intraperitoneal,0%
same,Percentage inhibition of gastric juice,gastric acid secretion [6]; 100 mg./kg. intraperitoneal,36%
same,Percentage inhibition of total acidity,gastric acid secretion [6]; 100 mg./kg. intraperitoneal,0%
COc1cc2[nH]nc(C(=O)NNC(C)C)c2cc1OC [Compound 7],Percentage inhibition of free HCl,gastric acid secretion [6]; 100 mg./kg. intraperitoneal,85%
same,Percentage inhibition of gastric juice,gastric acid secretion [6]; 100 mg./kg. intraperitoneal,80%
same,Percentage inhibition of total acidity,gastric acid secretion [6]; 100 mg./kg. intraperitoneal,67%
same,selectivity ratio,[2],20
same,ED50,small intestines,36 mg/kg
same,LD50 at 48 h,[3]; [8],720 mg/kg
"COc1cc2[nH]nc(C(=O)NNC3CCCCCC3)c2cc1OC [Compound 28, 5,6-dimethoxyindazole-3-carboxylic acid-cycloheptylhydrazide]",Percentage inhibition of free HCl,gastric acid secretion [6]; 50 mg./kg. intraperitoneal,47%
same,Percentage inhibition of free HCl,gastric acid secretion [6]; 100 mg./kg. intraperitoneal,63%
same,Percentage inhibition of gastric juice,gastric acid secretion [6]; 100 mg./kg. intraperitoneal,47%
same,Percentage inhibition of total acidity,gastric acid secretion [6]; 100 mg./kg. intraperitoneal,36%
same,selectivity ratio,[2],4.3
same,ED50,small intestines,280 mg/kg
same,LD50 at 48 h,[3]; [8],1200 mg/kg
same,Percentage inhibition of gastric juice,gastric acid secretion [5]; 50 mg./kg. intraperitoneal,46%
same,Percentage inhibition of total acidity,gastric acid secretion [5]; 50 mg./kg. intraperitoneal,38%
"COc1ccc(CC(C)NNC(=O)c2n[nH]c3cc(OC)c(OC)cc23)cc1OC (centres unmarked) [Compound 37, 5,6-dimethoxyindazole-3-carboxylic acid-2'-(3'-/3"",4""-dimethoxyphenyl/)-propylhydrazide]",selectivity ratio,[2],310
same,ED50,small intestines,8.7 mg/kg
same,LD50 at 48 h,[3]; [8],2700 mg/kg
"COc1cc2[nH]nc(C(=O)NNC(C)c3ccc([N+](=O)[O-])cc3)c2cc1OC (centres unmarked) [Compound 35, 5,6-dimethoxyindazole-3-carboxylic acid-1'-(4""-nitrophenyl)-ethylhydrazide]",selectivity ratio,[1],17.9
same,ED50,tetrabenazine ptosis,280 mg/kg
same,selectivity ratio,[2],2000
same,ED50,small intestines,2.5 mg/kg
same,LD50 at 48 h,[3],5000 mg/kg
same,LD50,[4],> 5000 mg/kg
